Measured values published in US9156811B2 (priority 2008, dated 2015).

system: Trypanosome (T. brucei brucei); experiment: In-vitro antitrypanosomal efficacy assay (cell growth, resazurin); type: cell-based; details: T. brucei brucei, blood stream form, variant 221
Description: To column 12, 200 μl media was added to provide a no cells control. Plates were then incubated at 37° C. in an atmosphere of 5% CO2 for 69 hours, before the addition of 20 μl of 500 μM rezasurin solution, and a further incubation period of 4 hours. […] Concentration effect curves were fitted using non-linear regression using XLFit 4.2 and EC50 values determined.

Row | Structure (SMILES) | ED50 (μM) T. brucei [µM]
1 | Cc1c(N[S+](=O)([O-])c2ccc(-c3cccc(CN4[C@@H](C)CC[C@@H]4C)c3)cc2)c(CC(C)C)nn1C [DDD100790] | 0.269
2 | Cc1c(N(C(F)F)[S+](=O)([O-])c2c(Cl)cc(-c3ccnc(N4CCNCC4)c3)cc2Cl)c(CC(C)C)nn1C [DDD100886] | 0.004
3 | Cc1nn(C)c(C)c1N(CC(F)F)[S+](=O)([O-])c1c(Cl)cc(CCCN2CCCNCC2)cc1Cl [DDD100142] | 0.014
4 | Cc1nn(C)c(C)c1N(C(F)F)[S+](=O)([O-])c1ccc(-c2ccnc(N3CCNCC3)c2)cc1 [DDD100888] | 0.003
5 | Cc1nn(C)c(C)c1N(CC(F)F)[S+](=O)([O-])c1c(Cl)cc(CCCCC2CCN(C)CC2)cc1Cl [DDD100159] | 0.009
6 | Cc1nn(C)c(C)c1N(CC(F)(F)F)[S+](=O)([O-])c1c(Cl)cc(CCCCC2CCNCC2)cc1Cl [DDD100167] | 0.014
7 | Cc1nn(C)c(C)c1N[S+](=O)([O-])c1ccc(CCCCC2CCN(C)CC2)cc1 [DDD99830] | 0.020
8 | CCc1nn(C)c(CC)c1N(C)[S+](=O)([O-])c1c(Cl)cc(CCCN2CCN(C)CC2)cc1Cl [DDD99836] | 0.013
9 | Cc1nn(C)c(C)c1N(C)[S+](=O)([O-])c1ccc(CCCCCCCCN(C)C)cc1 [DDD100093] | 0.106
10 | Cc1nn(C)c(C)c1N(CC(F)(F)F)[S+](=O)([O-])c1c(Cl)cc(CCCC2CCNCC2)cc1Cl [DDD100151] | 0.034
11 | Cc1nn(C)c(C)c1N(C(F)F)[S+](=O)([O-])c1c(Cl)cc(CCCN2CCCNCC2)cc1Cl [DDD100166] | 0.002
12 | Cc1nn(C)c(C)c1N(CC(F)(F)F)[S+](=O)([O-])c1c(Cl)cc(CCCCC2CCN(C)CC2)cc1Cl [DDD100165] | 0.020
13 | CCc1nccn1CCCCCCc1cc(Cl)c([S+](=O)([O-])N(c2c(C)nn(C)c2C)C(F)F)c(Cl)c1 [DDD100794] | 0.160

same assay, conditions: T. brucei cell growth

Row | Structure (SMILES) | ED50 (μM) T. brucei [µM]
14 | Cc1nn(C)c(C)c1NS(=O)(=O)c1ccc(-c2ccnc(N3CC(C)NC(C)C3)c2)cc1 (centres unmarked) [DDD87761, 4-[2-(3,5-Dimethyl-piperazin-1-yl)-pyridin-4-yl]-N-(1,3,5-trimethyl-1H-pyrazol-4-yl)-benzenesulfonamide] | 0.02
15 | Cc1nn(C)c(C)c1N[S+](=O)([O-])c1ccc(N2CCC(N3CCCCC3)C2)nc1 (centres unmarked) [DDD86477] | >1
16 | Cc1noc(C)c1N[S+](=O)([O-])c1ccc(-c2cccc(C3CCNCC3)c2)cc1 [DDD88189, 3′-Piperidin-4-yl-biphenyl-4-sulfonic acid (3,5-dimethyl-isoxazol-4-yl)-amide] | >1
17 | Cc1nn(C)c(C)c1N(C)[S+](=O)([O-])c1ccc(-c2cccc(CN3CCN(C)CC3)c2)cc1 [DDD88196, 3′-(4-Methyl-piperazin-1-ylmethyl)-biphenyl-4-sulfonic acid methyl-(1,3,5-trimethyl-1H-pyrazol-4-yl)-amide] | 0.05
18 | Cc1nn(C)c(C)c1N[S+](=O)([O-])c1c(Cl)cc(-c2ccc(OC(F)(F)F)cc2)cc1Cl [DDD73323] | >1
19 | Cc1nn(C)c(C)c1NS(=O)(=O)c1ccc(C#CCCC2CCN(C)CC2)cc1 [DDD99761] | 0.240
20 | Cc1nn(C)c(C)c1N(C)[S+](=O)([O-])c1c(Cl)cc(CCCN2CCN(C)CC2)cc1Cl [DDD88644] | 0.012
21 | COCc1ccccc1-c1cc(Cl)c([S+](=O)([O-])Nc2c(C)nn(C)c2C)c(Cl)c1 [DDD73274] | >1
22 | CCN(c1c(C)nn(C)c1C)[S+](=O)([O-])c1c(Cl)cc(Br)cc1Cl [DDD85637] | 3.2
23 | Cc1ncccc1N[S+](=O)([O-])c1ccc(-c2cccc(C3CCNCC3)c2)cc1 [DDD88003, 3′-Piperidin-4-yl-biphenyl-4-sulfonic acid (2-methyl-pyridin-3-yl)-amide] | 1.9
24 | Cc1nn(C)c(C)c1N(CC1OCCO1)[S+](=O)([O-])c1c(Cl)cc(Br)cc1Cl [DDD85641] | 16.3
25 | Cc1nn(C)c(C)c1N[S+](=O)([O-])c1ccc(-c2cc(CN3CCN(C)CC3)cc(OC(C)C)c2)cc1 [DDD88194, 3′-Isopropoxy-5′-(4-methyl-piperazin-1-ylmethyl)-biphenyl-4-sulfonic acid (1,3,5-trimethyl-1H-pyrazol-4-yl)-amide] | 2.0
26 | Cc1nn(C)c(C)c1N[S+](=O)([O-])c1ccc(-c2ccnc(N3CCCCC3)c2)cc1 [DDD87749, 4-(3,4,5,6-Tetrahydro-2H-[1,2′]bipyridinyl-4′-yl)-N-(1,3,5-trimethyl-1H-pyrazol-4-yl)-benzenesulfonamide] | 1.28
27 | Cc1nn(C)c(C)c1N[S+](=O)([O-])c1ccc(NCCN2CCCCC2)nc1 [DDD85635] | 48.1
28 | Cn1cc(N[S+](=O)([O-])c2c(Cl)cc(-c3ccnc(N4CCNCC4)c3)cc2Cl)cn1 [DDD86478, 2,6-Dichloro-N-(1-methyl-1H-pyrazol-4-yl)-4-(2-piperazin-1-yl-pyridin-4-yl)-benzenesulfonamide] | 0.24
29 | Cc1c(N[S+](=O)([O-])c2ccc(-c3ccnc(N4CCNCC4)c3)cc2)cnn1C [DDD87995, N-(1,5-Dimethyl-1H-pyrazol-4-yl)-4-(2-piperazin-1-yl-pyridin-4-yl)-benzenesulfonamide] | 0.02
30 | Cc1nn(C)cc1N[S+](=O)([O-])c1ccc(-c2ccnc(N3CCNCC3)c2)cc1 [DDD86471, N-(1,3-Dimethyl-1H-pyrazol-4-yl)-4-(2-piperazin-1-yl-pyridin-4-yl)-benzenesulfonamide] | 0.009
31 | CCCOc1cc(CN2CCN(C)CC2)cc(-c2ccc([S+](=O)([O-])Nc3c(C)nn(C)c3C)cc2)c1 [DDD88187, 5′-(4-Methyl-piperazin-1-ylmethyl)-3′-propoxy-biphenyl-4-sulfonic acid (1,3,5-trimethyl-1H-pyrazol-4-yl)-amide] | 2.15
32 | Cc1nn(C)c(C)c1N(C)[S+](=O)([O-])c1c(Cl)cc(CCCN2CC(C)NC(C)C2)cc1Cl (centres unmarked) [DDD99751] | 0.021
33 | Cc1nn(C)c(C)c1N[S+](=O)([O-])c1ccc(NC2CCNC2)nc1 (centres unmarked) [DDD86296] | >1
34 | Cc1nn(C)c(C)c1N[S+](=O)([O-])c1ccc(-c2cccc(CNCCN(C)C)c2)cc1 [DDD86316, 3′-[(2-Dimethylamino-ethylamino)-methyl]biphenyl-4-sulfonic acid (1,3,5-trimethyl-1H-pyrazol-4-yl)-amide] | 5.0
35 | Cc1nn(C)c(C)c1N(C)[S+](=O)([O-])c1ccc(CCCCCCN(C)C)cc1 [DDD99753] | 0.406

Row | Structure (SMILES) | ED50 (μM) T. brucei [µM]
36 | Cc1nn(C)c(C)c1N[S+](=O)([O-])c1ccc2nc(Cl)ccc2c1 [DDD88533] | >10
37 | Cc1nn(C)c(C)c1N(CC(F)F)[S+](=O)([O-])c1ccc(-c2ccnc(N3CCNCC3)c2)cc1 [DDD90111] | 0.005
38 | Cc1nn(C)c(C)c1N[S+](=O)([O-])c1c(Cl)cc(-c2ccccc2OCC(C)C)cc1Cl [DDD73273] | >1
39 | Cc1nn(C)c(C)c1N[S+](=O)([O-])c1ccc(NCCCN2CCC(N(C)C)C2)nc1 (centres unmarked) [DDD86300] | 1.73
40 | Cc1ncccc1N[S+](=O)([O-])c1ccc(-c2ccnc(N3CCNCC3)c2)cc1 [DDD87994, N-(2-Methyl-pyridin-3-yl)-4-(2-piperazin-1-yl-pyridin-4-yl)-benzenesulfonamide] | 0.11
41 | Cc1nn(C)c(C)c1N[S+](=O)([O-])c1c(Cl)cc(Br)cc1Cl [DDD73234, 4-Bromo-2,6-dichloro-N-(1,3,5-trimethyl-1H-pyrazol-4-yl)-benzenesulfonamide] | 14.3
42 | Cc1nn(C)c(C)c1N[S+](=O)([O-])c1ccc(N2CCC(N(C)C)C2)nc1 (centres unmarked) [DDD86306] | >1
43 | Cc1nn(C)c(C)c1N[S+](=O)([O-])c1ccc(NCCN2CCNCC2)nc1 [DDD86305] | >1
44 | Cc1nn(C)c(C)c1N[S+](=O)([O-])c1cc(F)c(Br)cc1F [DDD88004, 4-Bromo-3,6-difluoro-N-(1,3,5-trimethyl-1H-pyrazol-4-yl)-benzenesulfonamide] | >1
45 | Cc1nn(C)c(C)c1N[S+](=O)([O-])c1ccc(NCCN2CCN(c3ccccc3)CC2)nc1 [DDD86301] | >1
46 | Cc1nn(C)c(C)c1N(C)[S+](=O)([O-])c1ccc(CCCC2CCNCC2)cc1 [DDD90112] | 0.270
47 | Cc1nn(C)c(C)c1N[S+](=O)([O-])c1ccc(Cl)nc1 [DDD73235, 6-Chloro-pyridine-3-sulfonic acid (1,3,5-trimethyl-1H-pyrazol-4-yl)-amide] | >1
48 | Cc1nn(C)c(CC(C)C)c1N[S+](=O)([O-])c1c(Cl)cc(Br)cc1Cl [DDD88197, 4-Bromo-2,6-dichloro-N-(5-isobutyl-1,3-dimethyl-1H-pyrazol-4-yl)-benzenesulfonamide] | 45.9
49 | Cc1nn(C)c(C)c1N[S+](=O)([O-])c1ccc(-c2cccc(CN(C)C)c2)cc1 [DDD88005, 3′-Dimethylaminomethyl-biphenyl-4-sulfonic acid (1,3,5-trimethyl-1H-pyrazol-4-yl)-amide] | 0.1
50 | Cc1nn(C)c(C)c1N[S+](=O)([O-])c1c(Cl)cc(-c2ccc(CN3CCN(C)CC3)cc2)cc1Cl [DDD85644] | 2.1
51 | Cc1c(N[S+](=O)([O-])c2ccc(-c3cccc(C4CCNCC4)c3)cc2)c(CC(C)C)nn1C [DDD099757] | 0.061
52 | Cc1nn(C)c(C)c1N[S+](=O)([O-])c1ccc(NCCN2CCN(Cc3ccccc3)CC2)nc1 [DDD86472] | >1
53 | Cc1nn(C)c(C)c1N(C)[S+](=O)([O-])c1ccc(-c2cccc(CC3CCNCC3)c2)cc1 [DDD90098] | 0.060
54 | Cc1c(N(C)[S+](=O)([O-])c2ccc(CCCC3CCN(C)CC3)cc2)c(CC(C)C)nn1C [DDD90142] | 0.168
55 | Cc1cc([S+](=O)([O-])Nc2c(C)nn(C)c2C)ccc1Br [DDD71235] | >1
56 | Cc1nn(C)c(C)c1N[S+](=O)([O-])c1ccc(NC2CCN(Cc3ccccc3)C2)nc1 (centres unmarked) [DDD86294] | >1
